Legend:
[1] = system: PFAR (protein folding activity of ribosome); assay: Inhibition of PFAR in yeast cells (LuxAB luciferase refolding after heat shock); format: cell-based
PABPN1 aggregates = format: cell-based, murine
[2] = system: Drosophila expressing PABPN1-17ala; assay: Drosophila model of OPMD (PABPN1-17ala): abnormal wing position; format: in vivo; conditions: 2 mM in food, day 3 to day 6, chi-squared test
From the text: The model used is a fruit fly model for OPMD in which the mammalian protein PABPN1 with a repetition of 17 alanines (PABPN1-17a1a) is specifically expressed in the muscles of Drosophila (Chartier et al. 2006; Chartier et al. 2015). These models reproduce the characteristics of the disease, i.e. weakness and progressive muscular degeneration, and also the formation of nuclear PABPN1 aggregates. Thus, the expression of PABPN1-17ala in the indirect wing muscles leads to an abnormal wing posture, resulting from the disorder of the muscle function and degeneration of the muscles (Chartier et al. 2006). […]
The compounds were administered in the food, prepared as follows: an instant Drosophila medium (Carolina Biological Supply Company) was reconstituted in each tube with a 1% solution of yeast in water, supplemented by the compounds dissolved in DMSO with an increasing concentration, or with DMSO alone. […] The effect of the compounds was quantified by the daily measurement of the number of flies presenting an abnormal wing posture, corresponding to the flies expressing PABPN1-17ala, from day 3 to day 6 of the adult age: groups of five males per condition are placed in an empty tube and the number of males having an abnormal wing position is recorded by direct observation of the flies in the tube, without anesthesia.

SMILES	nuclei having aggregates of the PABPN1 protein (PABPN1 aggregates)	also measured
c1ccc(CN(CC2=NCCN2)c2ccccc2)cc1 [antazoline]	–	inhibition of PFAR [1]: do not inhibit PFAR
COc1ccc(CCN2CCC(Nc3nc4ccccc4n3Cc3ccc(F)cc3)CC2)cc1 [astemizole]	reduce the amount of muscle cell nuclei containing PABPN1 aggregates	–
CN1CCCC(n2nc(Cc3ccc(Cl)cc3)c3ccccc3c2=O)CC1 (centres unmarked) [azelastine]	reduce the amount of muscle cell nuclei containing PABPN1 aggregates	–
CN1CCC[C@@H]1CCO[C@](C)(c1ccccc1)c1ccc(Cl)cc1 [clemastine]	negative	–
CN1C(=O)CN=C(c2ccccc2)c2cc(Cl)ccc21 [diazepam]	negative	inhibition of PFAR [1]: do not inhibit PFAR
CNCC[C@H](Oc1cccc2ccccc12)c1cccs1 [duloxetine]	reduce the amount of muscle cell nuclei containing PABPN1 aggregates	–
CC(C)(C)c1ccc(C(=O)CCCN2CCC(OC(c3ccccc3)c3ccccc3)CC2)cc1 [ebastine]	reduce the amount of muscle cell nuclei containing PABPN1 aggregates	–
CN(C)C(=O)C(CCN1CCC(O)(c2ccc(Cl)cc2)CC1)(c1ccccc1)c1ccccc1 [loperamide]	reduce the amount of muscle cell nuclei containing PABPN1 aggregates	–
CN1CCCC(CC2c3ccccc3Sc3ccccc32)C1 (centres unmarked) [metixene]	reduce the amount of muscle cell nuclei containing PABPN1 aggregates	number of flies presenting an abnormal wing posture relative to DMSO [2]: significant reduction; activity compared with guanabenz (positive control) (PABPN1 aggregates): more active than guanabenz
CSc1ccc2c(c1)N(CCC1CCCCN1C)c1ccccc1S2 (centres unmarked) [thioridazine]	reduce the amount of muscle cell nuclei containing PABPN1 aggregates	–
CN(C)CCCN1c2ccccc2Sc2ccc(C(F)(F)F)cc21 [triflupromazine]	negative	–

From patent publication US20220273637A1, “NOVEL PFAR-INHIBITING COMPOUNDS” (UNIVERSITE DE BRETAGNE OCCIDENTALE (UBO), priority 2019, published 2022)
